Key:
Assay in all cases: receptor-ligand binding
[1] = target: 5-HT2A (Homo sapiens, UniProt P28223)
[2] = target: Rat D2 (Rattus norvegicus, UniProt P61169); conditions: read-out: Ki (μM) / Rat D2
[3] = target: h5-HT4B (Homo sapiens, UniProt Q13639)
[4] = target: 5-HT2B (Homo sapiens, UniProt P41595)
[5] = target: Human D2 (Homo sapiens, UniProt P14416); conditions: read-out: Ki (μM) / Human D2
[6] = target: T1, 5-HT2C (Homo sapiens, UniProt P28335)
T1 sequence (P28335 33-458): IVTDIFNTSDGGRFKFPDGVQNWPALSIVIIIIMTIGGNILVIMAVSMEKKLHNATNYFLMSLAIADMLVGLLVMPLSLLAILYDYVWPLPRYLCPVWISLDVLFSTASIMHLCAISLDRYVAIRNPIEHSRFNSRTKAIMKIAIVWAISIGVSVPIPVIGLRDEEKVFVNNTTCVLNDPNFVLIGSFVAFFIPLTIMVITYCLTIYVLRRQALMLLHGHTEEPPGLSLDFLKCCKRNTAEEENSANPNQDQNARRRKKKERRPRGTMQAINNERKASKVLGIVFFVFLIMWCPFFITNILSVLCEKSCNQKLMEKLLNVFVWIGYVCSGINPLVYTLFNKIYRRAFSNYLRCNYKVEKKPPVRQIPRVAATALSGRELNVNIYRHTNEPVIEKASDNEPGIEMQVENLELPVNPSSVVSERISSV

[7] = target: T2, hD4 (Homo sapiens, UniProt P21917); conditions: given as a range
T2 sequence (P21917 1-419): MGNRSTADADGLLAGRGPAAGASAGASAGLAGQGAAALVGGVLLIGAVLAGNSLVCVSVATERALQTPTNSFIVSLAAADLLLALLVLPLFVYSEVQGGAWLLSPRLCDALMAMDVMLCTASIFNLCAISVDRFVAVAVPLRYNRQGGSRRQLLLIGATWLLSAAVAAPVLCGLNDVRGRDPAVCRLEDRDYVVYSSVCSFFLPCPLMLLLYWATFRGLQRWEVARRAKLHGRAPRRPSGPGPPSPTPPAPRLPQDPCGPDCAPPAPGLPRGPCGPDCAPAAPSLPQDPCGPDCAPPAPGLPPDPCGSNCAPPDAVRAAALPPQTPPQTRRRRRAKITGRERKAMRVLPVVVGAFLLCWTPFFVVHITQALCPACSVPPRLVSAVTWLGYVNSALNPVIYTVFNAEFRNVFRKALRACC

[8] = target: T3, m5-HT3 (Mus musculus, UniProt P23979); conditions: given as a range
T3 sequence (P23979 24-489): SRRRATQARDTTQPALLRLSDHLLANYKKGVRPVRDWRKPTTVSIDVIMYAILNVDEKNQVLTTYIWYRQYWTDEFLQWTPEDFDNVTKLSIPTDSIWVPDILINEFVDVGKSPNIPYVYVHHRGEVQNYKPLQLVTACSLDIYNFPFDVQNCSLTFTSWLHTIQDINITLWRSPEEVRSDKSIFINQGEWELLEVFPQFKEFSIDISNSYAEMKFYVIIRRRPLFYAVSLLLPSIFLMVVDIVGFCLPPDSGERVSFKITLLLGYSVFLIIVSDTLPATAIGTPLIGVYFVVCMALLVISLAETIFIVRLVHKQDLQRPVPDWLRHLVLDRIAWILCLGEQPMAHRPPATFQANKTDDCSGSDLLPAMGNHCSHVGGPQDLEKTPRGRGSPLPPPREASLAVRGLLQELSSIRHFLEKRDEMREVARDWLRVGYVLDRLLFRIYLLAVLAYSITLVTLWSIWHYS

Chain of 5-HT2A (P28223 whole entry): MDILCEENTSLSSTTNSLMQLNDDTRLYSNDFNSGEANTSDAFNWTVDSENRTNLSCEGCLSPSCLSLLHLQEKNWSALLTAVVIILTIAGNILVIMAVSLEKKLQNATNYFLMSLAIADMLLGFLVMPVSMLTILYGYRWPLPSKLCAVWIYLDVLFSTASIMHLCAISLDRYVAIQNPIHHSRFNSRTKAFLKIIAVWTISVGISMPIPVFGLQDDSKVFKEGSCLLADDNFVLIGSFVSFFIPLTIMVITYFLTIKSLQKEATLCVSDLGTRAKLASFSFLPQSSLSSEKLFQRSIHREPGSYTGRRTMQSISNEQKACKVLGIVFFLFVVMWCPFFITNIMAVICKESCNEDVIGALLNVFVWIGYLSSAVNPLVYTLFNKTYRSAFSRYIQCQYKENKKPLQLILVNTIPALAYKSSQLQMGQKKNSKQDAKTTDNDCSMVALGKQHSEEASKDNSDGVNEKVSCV
Chain of Rat D2 (P61169 whole entry): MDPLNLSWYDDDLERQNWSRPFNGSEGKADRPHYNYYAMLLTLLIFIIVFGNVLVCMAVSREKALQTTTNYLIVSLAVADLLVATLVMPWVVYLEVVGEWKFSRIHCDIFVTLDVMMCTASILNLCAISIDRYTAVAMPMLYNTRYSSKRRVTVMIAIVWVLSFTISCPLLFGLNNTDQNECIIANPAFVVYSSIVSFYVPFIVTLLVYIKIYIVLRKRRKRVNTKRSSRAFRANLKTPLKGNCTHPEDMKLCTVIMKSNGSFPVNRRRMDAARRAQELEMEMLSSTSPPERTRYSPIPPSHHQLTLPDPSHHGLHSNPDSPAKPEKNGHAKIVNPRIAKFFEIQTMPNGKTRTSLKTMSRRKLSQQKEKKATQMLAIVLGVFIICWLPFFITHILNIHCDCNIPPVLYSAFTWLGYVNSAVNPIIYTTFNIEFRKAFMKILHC
Chain of Human D2 (P14416 whole entry): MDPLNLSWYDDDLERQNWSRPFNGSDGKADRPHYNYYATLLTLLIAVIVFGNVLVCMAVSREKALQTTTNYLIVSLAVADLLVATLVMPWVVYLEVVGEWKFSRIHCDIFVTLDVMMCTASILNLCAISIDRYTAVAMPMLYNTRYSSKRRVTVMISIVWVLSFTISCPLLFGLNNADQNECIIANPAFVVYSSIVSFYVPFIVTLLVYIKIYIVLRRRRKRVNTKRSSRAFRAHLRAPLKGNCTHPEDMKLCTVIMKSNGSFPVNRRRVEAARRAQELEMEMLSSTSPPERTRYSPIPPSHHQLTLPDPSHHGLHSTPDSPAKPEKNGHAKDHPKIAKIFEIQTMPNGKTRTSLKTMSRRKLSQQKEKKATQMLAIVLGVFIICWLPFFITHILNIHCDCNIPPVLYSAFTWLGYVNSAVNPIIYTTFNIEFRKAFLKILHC
Chain of 5-HT2B (P41595 whole entry): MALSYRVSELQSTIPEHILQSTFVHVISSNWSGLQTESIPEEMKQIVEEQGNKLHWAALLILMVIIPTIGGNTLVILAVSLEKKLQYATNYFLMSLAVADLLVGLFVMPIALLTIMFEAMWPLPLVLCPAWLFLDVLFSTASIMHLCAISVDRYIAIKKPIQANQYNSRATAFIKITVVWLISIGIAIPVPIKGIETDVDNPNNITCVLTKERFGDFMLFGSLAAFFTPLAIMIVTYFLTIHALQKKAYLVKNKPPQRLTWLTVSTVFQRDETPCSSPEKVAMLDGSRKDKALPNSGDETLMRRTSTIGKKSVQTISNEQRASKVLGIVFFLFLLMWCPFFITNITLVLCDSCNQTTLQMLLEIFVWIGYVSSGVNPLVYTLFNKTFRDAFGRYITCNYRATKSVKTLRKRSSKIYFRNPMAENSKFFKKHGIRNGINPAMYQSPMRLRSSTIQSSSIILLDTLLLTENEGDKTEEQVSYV
Chain of h5-HT4B (Q13639 whole entry): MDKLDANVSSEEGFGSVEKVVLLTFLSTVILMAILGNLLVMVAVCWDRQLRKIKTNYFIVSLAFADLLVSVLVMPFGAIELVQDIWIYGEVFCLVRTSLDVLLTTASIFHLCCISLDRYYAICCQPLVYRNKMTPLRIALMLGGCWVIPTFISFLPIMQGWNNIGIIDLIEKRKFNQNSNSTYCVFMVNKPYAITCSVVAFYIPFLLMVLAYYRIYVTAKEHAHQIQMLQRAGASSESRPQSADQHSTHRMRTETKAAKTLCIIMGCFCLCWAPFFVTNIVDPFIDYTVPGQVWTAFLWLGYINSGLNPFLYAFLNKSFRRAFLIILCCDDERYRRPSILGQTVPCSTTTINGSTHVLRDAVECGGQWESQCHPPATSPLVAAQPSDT

SMILES	Ki [1] [µM]	Ki [2] [µM]	Ki [3] [µM]	Ki [4] [µM]	Ki [5] [µM]	Ki [6] [µM]	Ki [7] [µM]	Ki [8] [µM]
Nc1c(Cl)cc(C(=O)NC2CCN(CCC(=O)O)CC2)c2c1CCO2 [R107504]	136	138	0.074	10	235	211		
COCCCN1CCC(NC(=O)c2cc(Cl)c(N)c3c2OCC3)CC1 [Prucalopride]	30	6			14	41	1.6 to 2.4	3.5 to 3.8

Source: PMC9983627 (Drugs in Context, 2023)
